Where a SMILES comes first, the peptide text is derived from it. Bridges are numbered along the chain shown (N, C = ends). [ ]: non-standard residue; d: D form. The star is where a group is joined. hPhe(3,5-F2-4-CF3) = N[C@@H](CCc1cc(F)c(C(F)(F)F)c(F)c1)C(=O)O; NPrPhe(4-CF3) = CCCN[C@@H](Cc1ccc(C(F)(F)F)cc1)C(=O)O; NMeGly(cPent) = CN[C@H](C(=O)O)C1CCCC1; NMeD = CN[C@@H](CC(=O)O)C(=O)O; Ac4c(3-oxa) = NC1(C(=O)O)COC1; NMeL = CN[C@@H](CC(C)C)C(=O)O; Morpholide = C1CN(*)CCO1; Aze = O=C(O)[C@@H]1CCN1; Sar = CNCC(=O)O
What was measured:
[1] = molecular target: GDP-bound NRAS wild-type protein (Homo sapiens, UniProt P01111); test: Binding to NRAS by surface plasmon resonance (SPR), Single Cycle Kinetics; settings: for NRAS/KRAS (ratio of KD value with respect to NRAS to KD value with respect to KRAS): GDP-bound NRAS wild-type vs GDP-bound KRAS wild-type
[2] = molecular target: GDP-bound HRAS wild-type protein (Homo sapiens, UniProt P01112); test: Binding to HRAS by surface plasmon resonance (SPR), Single Cycle Kinetics; settings: for HRAS/KRAS (ratio of KD value with respect to HRAS to KD value with respect to KRAS): GDP-bound HRAS wild-type vs GDP-bound KRAS wild-type
GDP-bound HRAS wild-type protein, sequence (P01112 whole entry): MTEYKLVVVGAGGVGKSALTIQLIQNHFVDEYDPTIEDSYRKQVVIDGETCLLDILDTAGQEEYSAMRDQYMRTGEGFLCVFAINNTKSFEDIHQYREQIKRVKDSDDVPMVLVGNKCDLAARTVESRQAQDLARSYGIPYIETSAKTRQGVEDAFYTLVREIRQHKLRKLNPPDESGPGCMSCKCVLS

GDP-bound NRAS wild-type protein, sequence (P01111 whole entry): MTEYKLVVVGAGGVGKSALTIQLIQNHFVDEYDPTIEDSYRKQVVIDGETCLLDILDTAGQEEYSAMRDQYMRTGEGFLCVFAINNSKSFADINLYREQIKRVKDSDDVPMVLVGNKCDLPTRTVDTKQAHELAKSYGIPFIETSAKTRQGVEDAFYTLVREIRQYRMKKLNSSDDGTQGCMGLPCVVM

| Structure (SMILES) | NRAS/KRAS (ratio of KD value with respect to NRAS to KD value with respect to KRAS) ([1]; SPR) | HRAS/KRAS (ratio of KD value with respect to HRAS to KD value with respect to KRAS) ([2]; SPR) | further results |
| --- | --- | --- | --- |
| CC[C@H](C)[C@@H]1NC(=O)[C@H](CC(C)C)N(C)C(=O)C[C@@H](C(=O)N(C)C)N(C)C(=O)[C@H](C2CCCC2)N(C)C(=O)C2(CCCC2)NC(=O)[C@@H]2CCCN2C(=O)[C@H](CCc2ccc(C(F)(F)F)c(Cl)c2)NC(=O)CN(C)C(=O)[C@H](Cc2ccc(C(F)(F)F)cc2)N2CC=CCOC[C@H](C2=O)N(C)C(=O)CN(C)C1=O [PP0628] | – | – | NRAS/KRAS (ratio of KD value with respect to GDP-bound NRAS wild-type protein to KD value with respect to KRAS) ([1]; SPR): C (A compound having a KD ratio of 0.1 or more and less than 3 is denoted as C); HRAS/KRAS (ratio of KD value with respect to GDP-bound HRAS wild-type protein to KD value with respect to KRAS) ([2]; SPR): C (A compound having a KD ratio of 0.1 or more and less than 3 is denoted as C) |
| CCCN1C(=O)CN(C)C(=O)[C@@H]2CCN2C(=O)[C@H]([C@@H](C)CC)NC(=O)[C@H](CC(C)C)N(C)C(=O)C[C@@H](C(=O)N2CCOCC2)N(C)C(=O)[C@H](C2CCCC2)N(C)C(=O)C2(COC2)NC(=O)[C@@H]2CCCN2C(=O)[C@H](CCc2cc(F)c(C(F)(F)F)c(F)c2)NC(=O)CN(C)C(=O)[C@@H]1Cc1ccc(C(F)(F)F)cc1 [PP0782] ([NMeL]I[Aze][Sar][NPrPhe(4-CF3)][Sar][hPhe(3,5-F2-4-CF3)]P[Ac4c(3-oxa)][NMeGly(cPent)][NMeD]-Morpholide; lactam N-11) | – | – | NRAS/KRAS (ratio of KD value with respect to GDP-bound NRAS wild-type protein to KD value with respect to KRAS) ([1]; SPR): B (a compound having 3 or more and less than 10 is denoted as B); HRAS/KRAS (ratio of KD value with respect to GDP-bound HRAS wild-type protein to KD value with respect to KRAS) ([2]; SPR): B (a compound having 3 or more and less than 10 is denoted as B) |
| CCC[C@H]1C(=O)N[C@@H](CC(C)C)C(=O)N2C[C@@H](OC)C[C@H]2C(=O)N(C)[C@H]2C/C=C\CCN(C2=O)[C@@H](Cc2ccc(C)cc2)C(=O)N(C)CC(=O)N[C@@H](CCc2ccc(C(F)(F)F)c(Cl)c2)C(=O)N2C[C@H](OCC)C[C@H]2C(=O)NC2(CC(C)(C)C2)C(=O)N(C)[C@@H](C2CCCC2)C(=O)N(C)[C@H](C(=O)N(C)C)CC(=O)N1C [PP2555] | – | – | NRAS/KRAS (ratio of KD value with respect to GDP-bound NRAS wild-type protein to KD value with respect to KRAS) ([1]; class symbols): A (a compound having 10 or more and less than 20 is denoted as A); HRAS/KRAS (ratio of KD value with respect to GDP-bound HRAS wild-type protein to KD value with respect to KRAS) ([2]; class symbols): B (a compound having 3 or more and less than 10 is denoted as B) |
| CCOC[C@H]1C(=O)N[C@@H]([C@@H](C)CC)C(=O)N(C)CC(=O)N(C)[C@H]2CCCCCN(C2=O)[C@@H](Cc2ccc(C(F)(F)F)cc2)C(=O)N(C)CC(=O)N[C@@H](CCc2cc(F)c(C(F)(F)F)c(F)c2)C(=O)N2C[C@H](OCC)C[C@H]2C(=O)NC2(CCC2)C(=O)N(C)[C@@H](C2CCCC2)C(=O)N(C)[C@H](C(=O)N2CCOCC2)CC(=O)N1C [PP0851] | B (a compound having 3 or more and less than 10 is denoted as B) | B (a compound having 3 or more and less than 10 is denoted as B) | – |
| CCO[C@@H]1C[C@H]2C(=O)NC3(CCC3)C(=O)N(C)[C@@H](C3CCCC3)C(=O)N(C)[C@H](C(=O)N(C)C)CC(=O)N(C)[C@@H](Cc3ccccc3C#N)C(=O)N[C@@H]([C@@H](C)CC)C(=O)N(C)CC(=O)N(C)[C@H]3CCCCCN(C3=O)[C@@H](Cc3ccc(C(F)(F)F)cc3)C(=O)N(C)CC(=O)N[C@@H](CCc3cc(F)c(C(F)(F)F)c(F)c3)C(=O)N2C1 [PP1171] | B (a compound having 3 or more and less than 10 is denoted as B) | B (a compound having 3 or more and less than 10 is denoted as B) | – |
| CCO[C@@H]1C[C@H]2C(=O)NC3(CCC3)C(=O)N(C)[C@@H](C3CCCC3)C(=O)N(C)[C@H](C(=O)N3CCOCC3)CC(=O)N(C)[C@@H](CC)C(=O)N[C@@H]([C@@H](C)CC)C(=O)N3CC[C@H]3C(=O)N(C)[C@H]3C[C@@H](C)CCN(C3=O)[C@@H](Cc3ccc(C(F)(F)F)cc3)C(=O)N(C)CC(=O)N[C@@H](CCc3cc(F)c(C(F)(F)F)c(F)c3)C(=O)N2C1 [PP1028] | B (a compound having 3 or more and less than 10 is denoted as B) | B (a compound having 3 or more and less than 10 is denoted as B) | – |
| CCO[C@@H]1C[C@H]2C(=O)NC3(CCC3)C(=O)N(C)[C@@H](C3CCCC3)C(=O)N(C)[C@H](C(=O)N3CCOCC3)CC(=O)N(C)[C@@H](CC)C(=O)N[C@@H]([C@@H](C)CC)C(=O)N(C)CC(=O)N(C)[C@H]3C/C=C\CCN(C3=O)[C@@H](Cc3ccc(C(F)(F)F)cc3)C(=O)N(C)CC(=O)N[C@@H](CCc3cc(F)c(C(F)(F)F)c(F)c3)C(=O)N2C1 [PP1092] | A (a compound having 10 or more and less than 20 is denoted as A) | A (a compound having 10 or more and less than 20 is denoted as A) | – |
